Reference: ChEMBL document CHEMBL5465560, “Selectivity Literature for EUbOPEN Chemogenomic Library” (2024)
Each block holds one compound with its values, some of them ahead of it.

Columns and labels:
[1] = target: T1, Inhibitor of nuclear factor kappa-B kinase subunit beta (Homo sapiens) (UniProt O14920); assay: Selectivity interaction (Kinase panel (literature)) EUB0001199aCl IKBKB; conditions: at 1 µM
T1 sequence (whole entry): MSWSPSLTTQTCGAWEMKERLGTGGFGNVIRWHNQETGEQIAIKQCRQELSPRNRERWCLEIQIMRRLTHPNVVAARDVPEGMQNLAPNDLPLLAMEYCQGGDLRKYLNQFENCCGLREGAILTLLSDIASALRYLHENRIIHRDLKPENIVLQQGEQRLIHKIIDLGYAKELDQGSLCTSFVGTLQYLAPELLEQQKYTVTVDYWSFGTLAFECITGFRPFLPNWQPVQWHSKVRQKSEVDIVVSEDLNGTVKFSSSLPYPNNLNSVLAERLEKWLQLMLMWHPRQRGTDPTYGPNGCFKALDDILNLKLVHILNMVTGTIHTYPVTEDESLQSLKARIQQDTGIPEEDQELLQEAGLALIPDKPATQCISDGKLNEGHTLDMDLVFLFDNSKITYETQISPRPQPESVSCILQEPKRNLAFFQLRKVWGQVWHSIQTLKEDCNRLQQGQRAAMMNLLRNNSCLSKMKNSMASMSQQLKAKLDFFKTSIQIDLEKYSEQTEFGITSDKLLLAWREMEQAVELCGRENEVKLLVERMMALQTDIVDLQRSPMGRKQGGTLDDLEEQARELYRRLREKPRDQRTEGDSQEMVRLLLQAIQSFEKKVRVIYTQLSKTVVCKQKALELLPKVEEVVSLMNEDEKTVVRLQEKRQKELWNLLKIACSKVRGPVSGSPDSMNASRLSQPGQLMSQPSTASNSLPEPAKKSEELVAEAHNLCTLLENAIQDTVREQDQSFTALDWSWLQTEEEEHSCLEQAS

[2] = target: Tyrosine-protein kinase Blk (Homo sapiens) (UniProt P51451); assay: Selectivity interaction (SelectScreen profiling (Invitrogen)) EUB0000607a BLK; conditions: at 2 µM
Sequence of Tyrosine-protein kinase Blk (Homo sapiens) (P51451 2-505 limits assumed): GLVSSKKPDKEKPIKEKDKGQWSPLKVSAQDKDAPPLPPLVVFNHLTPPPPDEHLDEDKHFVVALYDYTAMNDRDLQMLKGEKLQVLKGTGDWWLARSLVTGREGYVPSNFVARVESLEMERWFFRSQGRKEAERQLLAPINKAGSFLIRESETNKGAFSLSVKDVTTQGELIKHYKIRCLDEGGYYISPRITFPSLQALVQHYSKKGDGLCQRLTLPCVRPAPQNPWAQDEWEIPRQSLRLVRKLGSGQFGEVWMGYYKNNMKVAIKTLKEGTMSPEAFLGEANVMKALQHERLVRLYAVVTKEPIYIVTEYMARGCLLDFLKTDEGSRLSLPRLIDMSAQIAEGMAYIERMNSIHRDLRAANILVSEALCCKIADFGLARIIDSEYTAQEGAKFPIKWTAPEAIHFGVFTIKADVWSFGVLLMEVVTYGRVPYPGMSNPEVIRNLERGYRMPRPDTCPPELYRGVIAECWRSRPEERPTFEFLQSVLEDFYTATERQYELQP

[3] = target: T2, Serine/threonine-protein kinase LATS2 (Homo sapiens) (UniProt Q9NRM7); assay: Selectivity interaction (ActivX KiNativ screen (ex vivo kinase selectivity in human PBMCs)) EUB0001619a LATS2; type: cell-based; conditions: PBMC, at 1 µM
T2 sequence (whole entry): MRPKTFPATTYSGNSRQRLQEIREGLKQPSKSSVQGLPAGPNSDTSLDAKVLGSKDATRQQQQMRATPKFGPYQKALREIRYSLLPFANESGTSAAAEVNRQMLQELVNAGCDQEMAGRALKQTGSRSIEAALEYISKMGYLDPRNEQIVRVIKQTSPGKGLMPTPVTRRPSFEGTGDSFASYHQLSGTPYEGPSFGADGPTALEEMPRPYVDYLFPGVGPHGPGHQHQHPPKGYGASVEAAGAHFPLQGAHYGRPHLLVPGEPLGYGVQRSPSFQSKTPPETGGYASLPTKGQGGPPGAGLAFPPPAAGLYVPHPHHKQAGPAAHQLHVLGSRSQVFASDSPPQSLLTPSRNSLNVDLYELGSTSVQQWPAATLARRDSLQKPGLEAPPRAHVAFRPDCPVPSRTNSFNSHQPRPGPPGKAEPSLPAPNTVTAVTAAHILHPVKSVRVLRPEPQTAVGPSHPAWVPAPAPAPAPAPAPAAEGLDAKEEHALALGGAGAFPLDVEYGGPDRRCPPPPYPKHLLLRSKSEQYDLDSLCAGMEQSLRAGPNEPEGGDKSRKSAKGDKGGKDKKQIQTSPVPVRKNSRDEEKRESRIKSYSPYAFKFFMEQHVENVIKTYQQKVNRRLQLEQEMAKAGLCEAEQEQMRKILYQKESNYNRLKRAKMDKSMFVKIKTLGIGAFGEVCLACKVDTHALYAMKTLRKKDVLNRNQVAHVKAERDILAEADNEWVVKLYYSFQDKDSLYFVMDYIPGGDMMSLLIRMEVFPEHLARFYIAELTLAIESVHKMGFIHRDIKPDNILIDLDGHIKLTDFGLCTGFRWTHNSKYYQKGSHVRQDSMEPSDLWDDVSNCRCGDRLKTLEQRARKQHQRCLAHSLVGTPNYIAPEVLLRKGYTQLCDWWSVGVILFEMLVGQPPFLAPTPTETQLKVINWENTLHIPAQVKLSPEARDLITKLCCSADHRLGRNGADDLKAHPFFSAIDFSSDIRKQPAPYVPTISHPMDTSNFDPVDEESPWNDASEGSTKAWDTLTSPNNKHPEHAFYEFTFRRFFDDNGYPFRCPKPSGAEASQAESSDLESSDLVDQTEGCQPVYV

[4] = target: T3, cGMP-dependent protein kinase 1 (Homo sapiens) (UniProt Q13976); assay: Selectivity interaction (Upstate Kinase Profiler service (Millipore)) EUB0000056c PRKG1; conditions: at 1 µM
T3 sequence (whole entry): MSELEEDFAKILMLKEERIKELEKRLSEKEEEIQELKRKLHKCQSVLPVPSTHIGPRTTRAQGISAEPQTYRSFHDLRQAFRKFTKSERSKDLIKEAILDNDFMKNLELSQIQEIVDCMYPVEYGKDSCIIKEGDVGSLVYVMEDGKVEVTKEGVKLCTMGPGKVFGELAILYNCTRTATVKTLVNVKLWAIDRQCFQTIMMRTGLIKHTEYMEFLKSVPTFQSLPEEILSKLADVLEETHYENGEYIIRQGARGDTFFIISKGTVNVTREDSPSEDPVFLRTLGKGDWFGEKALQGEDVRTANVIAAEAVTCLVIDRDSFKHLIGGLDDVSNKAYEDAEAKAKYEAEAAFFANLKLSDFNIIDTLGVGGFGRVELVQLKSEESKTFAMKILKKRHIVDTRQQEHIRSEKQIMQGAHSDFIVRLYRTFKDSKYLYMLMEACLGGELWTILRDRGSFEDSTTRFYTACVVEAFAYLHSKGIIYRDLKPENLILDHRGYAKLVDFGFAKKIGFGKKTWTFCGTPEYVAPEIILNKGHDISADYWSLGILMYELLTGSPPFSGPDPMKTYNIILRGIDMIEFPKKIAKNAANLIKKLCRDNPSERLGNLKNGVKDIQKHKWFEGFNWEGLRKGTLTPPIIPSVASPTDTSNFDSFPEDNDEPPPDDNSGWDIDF

[5] = target: Cyclin-dependent kinase 18 (Homo sapiens) (UniProt Q07002); conditions: at 10 µM
Sequence of Cyclin-dependent kinase 18 (Homo sapiens) (Q07002 whole entry): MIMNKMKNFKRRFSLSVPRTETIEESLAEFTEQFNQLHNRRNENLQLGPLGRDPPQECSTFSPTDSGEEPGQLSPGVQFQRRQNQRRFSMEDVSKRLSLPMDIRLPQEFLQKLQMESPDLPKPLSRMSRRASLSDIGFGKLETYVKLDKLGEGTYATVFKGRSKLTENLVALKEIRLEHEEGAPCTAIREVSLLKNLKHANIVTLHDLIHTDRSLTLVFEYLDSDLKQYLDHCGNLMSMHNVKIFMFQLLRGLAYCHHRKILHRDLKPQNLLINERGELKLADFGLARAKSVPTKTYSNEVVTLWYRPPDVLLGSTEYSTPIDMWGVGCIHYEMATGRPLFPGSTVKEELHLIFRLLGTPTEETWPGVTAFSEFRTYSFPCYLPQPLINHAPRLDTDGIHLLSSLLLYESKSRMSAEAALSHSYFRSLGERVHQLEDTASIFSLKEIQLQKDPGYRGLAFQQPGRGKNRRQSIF

[6] = target: Receptor tyrosine-protein kinase erbB-4 (Homo sapiens, UniProt Q15303); conditions: at 10 µM
Sequence of Receptor tyrosine-protein kinase erbB-4 (Q15303 whole entry): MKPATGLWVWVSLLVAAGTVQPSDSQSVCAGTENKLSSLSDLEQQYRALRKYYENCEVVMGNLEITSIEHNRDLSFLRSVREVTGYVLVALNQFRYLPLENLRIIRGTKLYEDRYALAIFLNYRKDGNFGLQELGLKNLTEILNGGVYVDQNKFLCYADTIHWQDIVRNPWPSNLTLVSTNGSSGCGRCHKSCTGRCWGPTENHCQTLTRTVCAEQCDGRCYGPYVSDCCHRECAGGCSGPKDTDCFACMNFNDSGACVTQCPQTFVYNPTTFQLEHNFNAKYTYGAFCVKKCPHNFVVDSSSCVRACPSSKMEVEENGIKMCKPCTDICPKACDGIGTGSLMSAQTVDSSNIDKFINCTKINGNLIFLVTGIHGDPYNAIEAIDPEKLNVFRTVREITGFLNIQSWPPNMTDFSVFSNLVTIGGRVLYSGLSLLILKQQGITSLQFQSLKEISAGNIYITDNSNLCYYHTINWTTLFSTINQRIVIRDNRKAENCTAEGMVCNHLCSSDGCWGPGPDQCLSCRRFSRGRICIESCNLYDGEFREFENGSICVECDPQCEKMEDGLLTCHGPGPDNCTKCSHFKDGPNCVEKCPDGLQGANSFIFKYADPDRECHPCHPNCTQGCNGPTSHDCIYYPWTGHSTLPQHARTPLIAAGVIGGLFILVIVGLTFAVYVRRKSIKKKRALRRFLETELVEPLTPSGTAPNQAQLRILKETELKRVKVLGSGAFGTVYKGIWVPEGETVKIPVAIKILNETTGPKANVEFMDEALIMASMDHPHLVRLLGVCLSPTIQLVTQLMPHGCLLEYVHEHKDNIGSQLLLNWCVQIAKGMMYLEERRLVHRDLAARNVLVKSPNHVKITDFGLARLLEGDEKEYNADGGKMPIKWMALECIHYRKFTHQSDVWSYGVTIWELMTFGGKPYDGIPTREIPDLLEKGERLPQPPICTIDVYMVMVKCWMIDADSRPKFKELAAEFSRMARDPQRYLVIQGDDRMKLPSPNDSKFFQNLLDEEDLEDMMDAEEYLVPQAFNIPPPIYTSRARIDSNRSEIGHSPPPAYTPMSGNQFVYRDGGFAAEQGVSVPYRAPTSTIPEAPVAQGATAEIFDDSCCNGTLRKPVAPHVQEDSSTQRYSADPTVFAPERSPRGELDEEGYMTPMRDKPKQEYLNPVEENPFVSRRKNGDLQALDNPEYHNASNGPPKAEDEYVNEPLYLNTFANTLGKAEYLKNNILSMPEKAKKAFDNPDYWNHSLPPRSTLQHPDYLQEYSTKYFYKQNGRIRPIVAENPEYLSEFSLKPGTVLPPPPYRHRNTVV

[7] = target: Ribosomal protein S6 kinase alpha-3 (Homo sapiens, UniProt P51812); conditions: at 10 µM
Sequence of Ribosomal protein S6 kinase alpha-3 (P51812 whole entry): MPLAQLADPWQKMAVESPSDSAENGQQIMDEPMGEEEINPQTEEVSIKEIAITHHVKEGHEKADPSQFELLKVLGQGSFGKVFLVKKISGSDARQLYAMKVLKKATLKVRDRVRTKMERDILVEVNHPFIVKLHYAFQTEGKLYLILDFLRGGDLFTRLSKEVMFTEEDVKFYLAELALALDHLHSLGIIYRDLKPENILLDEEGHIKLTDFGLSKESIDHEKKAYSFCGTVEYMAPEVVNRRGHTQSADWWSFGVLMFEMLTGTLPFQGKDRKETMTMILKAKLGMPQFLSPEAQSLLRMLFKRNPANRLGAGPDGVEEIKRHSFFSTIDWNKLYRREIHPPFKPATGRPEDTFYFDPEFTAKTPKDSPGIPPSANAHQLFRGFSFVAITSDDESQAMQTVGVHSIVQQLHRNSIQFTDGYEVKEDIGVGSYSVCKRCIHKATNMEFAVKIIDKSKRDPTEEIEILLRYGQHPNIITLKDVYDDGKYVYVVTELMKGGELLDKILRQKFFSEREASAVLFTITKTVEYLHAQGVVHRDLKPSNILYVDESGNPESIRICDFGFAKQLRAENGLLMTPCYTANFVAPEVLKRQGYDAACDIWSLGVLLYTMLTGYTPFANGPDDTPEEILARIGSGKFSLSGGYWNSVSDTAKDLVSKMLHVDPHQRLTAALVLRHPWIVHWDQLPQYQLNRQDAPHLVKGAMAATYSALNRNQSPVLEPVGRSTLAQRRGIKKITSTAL

[8] = target: Serine/threonine-protein kinase WNK3 (Homo sapiens) (UniProt Q9BYP7); assay: Selectivity interaction (LanthaScreen Eu Kinase Binding Assay) EUB0001632a WNK3; conditions: at 10 µM
Sequence of Serine/threonine-protein kinase WNK3 (Homo sapiens) (Q9BYP7 whole entry): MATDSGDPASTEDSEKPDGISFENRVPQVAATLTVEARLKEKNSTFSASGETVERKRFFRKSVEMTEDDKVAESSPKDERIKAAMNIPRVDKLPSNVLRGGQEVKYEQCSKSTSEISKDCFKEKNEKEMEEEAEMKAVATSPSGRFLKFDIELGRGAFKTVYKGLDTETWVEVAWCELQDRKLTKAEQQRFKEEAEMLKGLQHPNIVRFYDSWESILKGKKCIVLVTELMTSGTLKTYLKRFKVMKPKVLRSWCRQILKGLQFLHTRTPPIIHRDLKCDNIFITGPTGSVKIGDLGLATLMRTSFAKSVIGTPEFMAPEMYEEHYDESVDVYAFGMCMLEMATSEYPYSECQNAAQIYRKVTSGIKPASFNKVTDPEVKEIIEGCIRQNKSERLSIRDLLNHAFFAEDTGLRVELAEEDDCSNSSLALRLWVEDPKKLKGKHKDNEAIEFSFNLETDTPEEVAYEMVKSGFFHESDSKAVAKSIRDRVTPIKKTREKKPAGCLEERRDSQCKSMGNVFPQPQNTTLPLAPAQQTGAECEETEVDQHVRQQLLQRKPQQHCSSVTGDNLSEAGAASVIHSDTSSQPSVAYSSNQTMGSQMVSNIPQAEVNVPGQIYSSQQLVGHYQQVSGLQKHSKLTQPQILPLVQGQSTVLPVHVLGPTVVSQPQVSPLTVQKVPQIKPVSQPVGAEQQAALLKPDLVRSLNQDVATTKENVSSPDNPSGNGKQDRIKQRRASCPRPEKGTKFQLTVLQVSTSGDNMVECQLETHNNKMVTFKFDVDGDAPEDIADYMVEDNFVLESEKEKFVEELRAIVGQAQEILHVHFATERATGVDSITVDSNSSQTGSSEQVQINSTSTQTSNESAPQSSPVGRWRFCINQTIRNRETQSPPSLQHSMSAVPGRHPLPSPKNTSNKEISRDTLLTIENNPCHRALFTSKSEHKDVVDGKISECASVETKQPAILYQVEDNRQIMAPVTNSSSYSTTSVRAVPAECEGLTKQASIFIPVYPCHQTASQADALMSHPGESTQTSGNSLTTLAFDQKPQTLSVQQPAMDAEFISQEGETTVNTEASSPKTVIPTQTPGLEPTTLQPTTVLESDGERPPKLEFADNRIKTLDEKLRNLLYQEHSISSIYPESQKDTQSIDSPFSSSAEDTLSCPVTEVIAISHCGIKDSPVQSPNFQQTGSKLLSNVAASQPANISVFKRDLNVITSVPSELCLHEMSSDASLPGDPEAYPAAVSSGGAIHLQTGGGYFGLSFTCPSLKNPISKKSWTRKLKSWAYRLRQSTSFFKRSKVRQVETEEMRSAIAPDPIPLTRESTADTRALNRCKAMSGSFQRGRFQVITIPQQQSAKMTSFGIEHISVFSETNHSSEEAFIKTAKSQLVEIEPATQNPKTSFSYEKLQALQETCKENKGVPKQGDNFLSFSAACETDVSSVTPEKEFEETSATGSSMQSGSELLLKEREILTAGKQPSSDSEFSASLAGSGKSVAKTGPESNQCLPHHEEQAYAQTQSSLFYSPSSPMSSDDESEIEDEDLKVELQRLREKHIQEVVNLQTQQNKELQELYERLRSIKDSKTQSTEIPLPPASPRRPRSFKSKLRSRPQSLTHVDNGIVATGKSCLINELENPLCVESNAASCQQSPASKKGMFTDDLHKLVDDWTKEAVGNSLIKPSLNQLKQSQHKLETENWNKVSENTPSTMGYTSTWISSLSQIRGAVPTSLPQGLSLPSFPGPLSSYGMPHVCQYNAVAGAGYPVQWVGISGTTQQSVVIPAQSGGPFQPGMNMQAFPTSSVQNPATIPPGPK

Structure (SMILES): CNC(=O)Nc1ccc(-c2nc(N3CC4CCC(C3)O4)c3cnn(C4CCC5(CC4)OCCO5)c3n2)cc1
% of inhibition [2]: 1%

Structure (SMILES): N#Cc1cccc(-c2c[nH]c3ncnc(N4CCOCC4)c23)c1
% of inhibition [3]: 16%

Structure (SMILES): Cc1cc([C@@H](C)Nc2ccccc2C(=O)O)c2nc(N3CCOCC3)cc(=O)n2c1 [AZD-6482]
% of control [5]: 100% | % of control [6]: 100% | % of control [7]: 91%

Now from value to compound:

% of inhibition [1]: 4%
Structure (SMILES): CN1Cc2nccc(-c3cn(C)nc3-c3ccc(F)cc3)c2C1=O

% of inhibition [4]: 3%
Structure (SMILES): Cc1ccc(-c2ccc3c(ccc4sc5c(c43)NC[C@@H](C)NC5=O)n2)cn1

% of inhibition [8]: -35.1%
Structure (SMILES): Cn1cc(-n2cnc3c(NCc4nc5cc(Cl)c(Cl)cc5[nH]4)nc(N4CCOCC4)nc32)cn1
